Patent US20130252930A1 (BIOMARIN PHARMACEUTICAL INC., priority 2010, published 2013)
Where two headings read alike, the source gives them in different places.

Legend:
[1] = tested on: rat Cyp11B enzyme (rat adrenal mitochondria); experiment: CYP11B enzymatic assay (% inhibition at 100 nM) (Biological Example 9); type: biochemical; conditions: for Biological Example No. 9: CYP11B percent inhibition at 100 nM: 100 nM compound, cortisol by ELISA
Method in brief: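 Sprague Dawley rat adrenal mitochondria were incubated with compound at 100 nM, 0.5 mM NADPH and 0.1 μM 11-deoxycortisol (pH 7.4 Tris buffer) for 60 min at 37 °C. Cortisol was measured by ELISA and corrected by subtracting the no-NADPH background. % inhibition is relative to the no-compound reaction.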

CYP17 (H295R cells) = target: T1, CYP17 (H295R cells) (Homo sapiens, UniProt P05093); experiment: CYP17 cellular assay (IC50), testosterone in H295R cells (Biological Example 7); type: cell-based; conditions: H295R cells
T1 construct: endogenous in cells; host or cells: H295R cells
T1 sequence (P05093 1-508): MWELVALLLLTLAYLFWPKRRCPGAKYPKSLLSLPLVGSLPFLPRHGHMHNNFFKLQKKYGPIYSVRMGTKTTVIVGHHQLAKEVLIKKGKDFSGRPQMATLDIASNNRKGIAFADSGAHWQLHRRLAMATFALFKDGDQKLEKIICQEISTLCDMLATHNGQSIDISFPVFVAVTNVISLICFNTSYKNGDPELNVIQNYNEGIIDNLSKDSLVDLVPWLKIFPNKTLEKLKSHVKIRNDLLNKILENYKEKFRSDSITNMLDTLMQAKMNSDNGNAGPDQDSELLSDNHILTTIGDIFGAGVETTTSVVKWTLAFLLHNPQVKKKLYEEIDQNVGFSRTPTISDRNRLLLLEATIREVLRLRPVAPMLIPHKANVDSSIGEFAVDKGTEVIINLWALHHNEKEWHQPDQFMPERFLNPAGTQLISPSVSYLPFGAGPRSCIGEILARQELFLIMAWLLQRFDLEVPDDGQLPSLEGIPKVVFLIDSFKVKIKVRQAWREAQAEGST
Method in brief: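 Testosterone in the medium was quantified by ELISA after 24 h at 37 °C with test compound (final 100, 10, 1, 0.1 nM; serum-free DMEM/F-12, ITS+, 0.1% methanol). The H295R cells had been seeded and grown 24 h beforehand; vehicle wells served as control.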

[2] = target: T2, CYP17 (human testicular microsome) (Homo sapiens, UniProt P05093); experiment: CYP17 enzymatic assay (IC50) (Biological Example 4); type: biochemical; conditions: human testicular microsome
T2 construct: using microsomal fraction from human testis (Celsis Cat #S00110) as the enzyme source; tissue Celsis S00110; host or cells: human testis microsomal fraction
T2 sequence (P05093 1-508): T1 sequence (P05093 1-508)

[3] = testosterone by ELISA, 24 hours, read-out: Biological Example No. 7: CYP17 cellular assay IC50
[4] = DHEA by ELISA, read-out: Biological Example No. 4: CYP17 enzymatic assay IC50

SMILES	Biological Example No. 9: CYP11B percent inhibition at 100 nM [1]	IC50 (CYP17 (H295R cells); [3]) [µM]	IC50 [2, 4] [µM]	CYP11B enzymatic assay % inhibition at 100 nM (Biological Example No. 9) ([1]; compound at 100 nM)	IC50 (CYP17 (H295R cells); testosterone, read-out: CYP17 cellular assay IC50 (Biological Example No. 7)) [µM]	IC50 ([2]; read-out: CYP17 enzymatic assay IC50 (Biological Example No. 4)) [µM]
C[C@]12CC(O)C[C@@H]1CC[C@@H]1[C@@H]2CC[C@]2(C)C(n3ccnc3)=CC[C@@H]12 (stereo partly drawn) [Compound 109, (3aS,5aS)-6-(1H-imidazol-1-yl)-3a,5a-dimethyl-1,2,3,3a,3b,4,5,5a,8,8a,8b,9,10,10a-tetradecahydrodicyclopenta[a,f]naphthalen-2-ol]	U (U means the compound had a percent inhibition of greater than or equal to 32%)	< 0.015	< 0.011			
C[C@]12CC[C@H]3[C@@H](CC=C4C[C@@H](O)CC[C@@]43C)C1=CC=C2c1cccnc1 [Compound 79, (3S,10R,13S)-10,13-dimethyl-17-(pyridin-3-yl)-2,3,4,7,8,9,10,11,12,13-decahydro-1H-cyclopenta[a]phenanthren-3-ol]	T (T means the compound had a percent inhibition of less than 32% when tested at 100 nM)	< 0.015	< 0.011			
CC(=O)NC1CC[C@@]2(C)C(=CCC3C2CC[C@]2(C)C(n4ccnc4)=CCC32)C1 (stereo partly drawn) [Compound 237, N-((10R,13S)-17-(1H-imidazol-1-yl)-10,13-dimethyl-2,3,4,7,8,9,10,11,12,13,14,15-dodecahydro-1H-cyclopenta[a]phenanthren-3-yl)acetamide]				U (U means the compound had a percent inhibition of greater than or equal to 32%)	< 0.015	< 0.011
